Results published in patent US12344603B2 (Genentech, Inc., priority 2020, dated 2025).
Where a name gives a salt, the structure may show the parent alone.

Each molecule was assayed against IRE1α (Homo sapiens (Human), UniProt O75460, D688N) (assay: IRE1α TR-FRET competition binding assay (IRE1α HTRF)). Details: TR-FRET competition binding to kinase domain of IRE1α.
Experimental: IRE1α TR-FRET Competition Binding Assay. The affinity of compound binding to the kinase domain of IRE1α was determined using a time-resolved fluorescence resonance energy transfer (TR-FRET) competition assay.
The purified protein (final concentration 0.25 nM) was pre-incubated with anti-His Europium labeled antibody (Life Technologies PV5596, final concentration 2 nM) for one hour at 4° C. in TR-FRET Assay Buffer (50 mM HEPES, pH 7.5, 10 mM MgCl2, 0.083 mM Brij 35, 1 mM DTT, and 0.1% bovine gamma globulin) prior to addition to test compounds. An Alexa fluor 647-labeled probe based on an ATP competitive inhibitor was added to a final concentration of 2 nM. Reactions were carried out for one hour at room temperature in a final volume of 20 μL in 384 well white ProxiPlates (Perkin Elmer 6008289). Binding of the probe to the IRE1α protein was detected in an Envision instrument (PerkinElmer) equipped with a TRF laser option and a LANCE/Delfia Dual/Bias D400/D630 mirror (Ex 347 nm, 1st Em 665 nm, 2nd Em 615 nm).

Chain of IRE1α (O75460 547-977 D688N): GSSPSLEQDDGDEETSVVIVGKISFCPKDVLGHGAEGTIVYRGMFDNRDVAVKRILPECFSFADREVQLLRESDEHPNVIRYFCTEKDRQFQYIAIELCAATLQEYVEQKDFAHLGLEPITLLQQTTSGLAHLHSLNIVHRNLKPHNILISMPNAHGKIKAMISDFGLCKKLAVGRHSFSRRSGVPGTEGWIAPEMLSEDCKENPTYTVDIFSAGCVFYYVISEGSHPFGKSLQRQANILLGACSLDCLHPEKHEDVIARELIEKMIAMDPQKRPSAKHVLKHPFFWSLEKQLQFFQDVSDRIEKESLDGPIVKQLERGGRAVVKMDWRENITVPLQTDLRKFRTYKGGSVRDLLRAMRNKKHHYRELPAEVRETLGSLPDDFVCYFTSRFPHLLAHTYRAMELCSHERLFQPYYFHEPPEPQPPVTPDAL

Compound	IC50 [pM]
CC(C)n1c(=O)c(-c2ccc(NS(=O)(=O)CCC(F)(F)F)cn2)cc2cnc(N[C@H]3CC[C@H](N(C)C)[C@H](F)C3)nc21 [Example 223, N-(6-(2-(((1S,3R,4S)-4-(Dimethylamino)-3-fluorocyclohexyl)amino)-8-isopropyl-7-oxo-7,8-dihydropyrido[2,3-d]pyrimidin-6-yl)pyridin-3-yl)-3,3,3-trifluoropropane-1-sulfonamide]	500
CC(n1c(=O)c(-c2ccc(NS(=O)(=O)Cc3ccccc3)c(F)c2F)cc2cnc(N[C@@H]3CNC[C@@H](F)C3)nc21)C(F)(F)F (stereo partly drawn) [Compound 42, N-(2,3-difluoro-4-(2-(((3S,5S)-5-fluoropiperidin-3-yl)amino)-7-oxo-8-(1,1,1-trifluoropropan-2-yl)-7,8-dihydropyrido[2,3-d]pyrimidin-6-yl)phenyl)-1-phenylmethanesulfonamide trifluoroacetate salt]	3600
Cn1c(=O)c(-c2cc(F)c(NS(=O)(=O)CCC(F)(F)F)c3ccccc23)cc2cnc(N[C@H]3CCCNC3)nc21 [Compound 7, (S)-3,3,3-Trifluoro-N-(2-fluoro-4-(8-methyl-7-oxo-2-(piperidin-3-ylamino)-7,8-dihydropyrido[2,3-d]pyrimidin-6-yl)naphthalen-1-yl)propane-1-sulfonamide]	5900
CCn1c(=O)c(-c2cc(F)c(NS(=O)(=O)Cc3ccccn3)c(F)c2F)cc2cnc(N[C@@H]3CNC[C@@H](F)C3)nc21 [Compound 49, N-(4-(8-ethyl-2-(((3S,5S)-5-fluoropiperidin-3-yl)amino)-7-oxo-7,8-dihydropyrido[2,3-d]pyrimidin-6-yl)-2,3,6-trifluorophenyl)-1-(pyridin-2-yl)methanesulfonamide]	5000
Cn1c(=O)c(-c2cccc3c(NS(=O)(=O)Cc4ccccc4)c(F)ccc23)cc2cnc(N[C@H]3CCCNC3)nc21 [Compound 5, (S)—N-(2-Fluoro-5-(8-methyl-7-oxo-2-(piperidin-3-ylamino)-7,8-dihydropyrido[2,3-d]pyrimidin-6-yl)naphthalen-1-yl)-1-phenylmethanesulfonamide]	280
CCC(C)n1c(=O)c(-c2ccc(NS(=O)(=O)Cc3ccccc3F)c(F)c2)cc2cnc(N[C@@H]3CNC[C@@H](F)C3)nc21 (single isomer, unassigned) [Compound 202A, hydrochloride]	260
CCC(C)n1c(=O)c(-c2ccc(NS(=O)(=O)Cc3ccccc3F)c(F)c2)cc2cnc(N[C@@H]3CNC[C@@H](F)C3)nc21 (single isomer, unassigned) [Compound 202B, hydrochloride]	260
CC(C)n1c(=O)c(-c2cc(F)c(NCC(O)C(F)(F)F)c(F)c2F)cc2cnc(N[C@H]3CC[C@H](N(C)C)CC3)nc21 (some centres unmarked) [Compound 99, 2-(((1r,4r)-4-(Dimethylamino)cyclohexyl)amino)-8-isopropyl-6-(2,3,5-trifluoro-4-((3,3,3-trifluoro-2-hydroxypropyl)amino)phenyl)pyrido[2,3-d]pyrimidin-7(8H)-one]	46000
CC(C)n1c(=O)c(-c2cc(F)c(NS(=O)(=O)Cc3ccc(F)cc3)c(F)c2F)nc2cnc(N[C@@H]3CNC[C@@H](F)C3)nc21 [Compound 171, 1-(4-Fluorophenyl)-N-(2,3,6-trifluoro-4-(2-(((3S,5S)-5-fluoropiperidin-3-yl)amino)-8-isopropyl-7-oxo-7,8-dihydropteridin-6-yl)phenyl)methanesulfonamide hydrochloride]	120
CCC1CCN(c2ccc(-c3cc4cnc(N[C@@H]5CNC[C@@H](F)C5)nc4n(CC)c3=O)c(F)c2F)C1=O (stereo partly drawn) [Compound 41, 8-Ethyl-6-(4-(3-ethyl-2-oxopyrrolidin-1-yl)-2,3-difluorophenyl)-2-(((3S,5S)-5-fluoropiperidin-3-yl)amino)pyrido[2,3-d]pyrimidin-7(8H)-one]	87000

The next lines start with the values.

IC50 [pM]	Compound
800	CC(C)n1c(=O)c(-c2cc(F)c(NS(=O)(=O)Cc3ccc(Cl)cc3)c(F)c2)nc2cnc(N[C@H]3CC[C@H](N(C)C)CC3)nc21 [Example 243, 1-(4-Chlorophenyl)-N-[4-[2-[[4-(dimethylamino)cyclohexyl]amino]-8-isopropyl-7-oxo-pteridin-6-yl]-2,6-difluoro-phenyl]methanesulfonamide]
690	CC(C)n1c(=O)c(-c2c(F)cc(NS(=O)(=O)CCC(F)(F)F)cc2F)nc2cnc(N[C@H]3CC[C@H](N(C)C)CC3)nc21 [Compound 169, N-(4-(2-(((1r,4r)-4-(Dimethylamino)cyclohexyl)amino)-8-isopropyl-7-oxo-7,8-dihydropteridin-6-yl)-3,5-difluorophenyl)-3,3,3-trifluoropropane-1-sulfonamide]
900	CC(C)n1c(=O)c(-c2ccc(NS(=O)(=O)CCC(F)(F)F)c(F)c2)nc2cnc(N[C@@H]3CNC[C@H](CF)C3)nc21 [Compound 76, 3,3,3-Trifluoro-N-[2-fluoro-4-[2-[[(3S,5R)-5-(fluoromethyl)-3-piperidyl]amino]-8-isopropyl-7-oxo-pteridin-6-yl]phenyl]propane-1-sulfonamide]
300	CC(C)n1c(=O)c(-c2ccc(NS(=O)(=O)CC3CC34CC4)c(F)c2)nc2cnc(N[C@H]3CC[C@H](N(C)C)CC3)nc21 (some centres unmarked) [Example 256, N-[4-[2-[[4-(Dimethylamino)cyclohexyl]amino]-8-isopropyl-7-oxo-pteridin-6-yl]-2-fluoro-phenyl]-1-spiro[2.2]pentan-2-yl-methanesulfonamide]
270	CC(C)n1c(=O)c(-c2ccc(NS(=O)(=O)c3ccccc3Cl)nc2)nc2cnc(N[C@H]3CC[C@H](N(C)CCF)CC3)nc21 [Compound 188, 2-Chloro-N-(5-(2-(((1r,4r)-4-((2-fluoroethyl)(methyl)amino)cyclohexyl)amino)-8-isopropyl-7-oxo-7,8-dihydropteridin-6-yl)pyridin-2-yl)benzenesulfonamide hydrochloride]
150	CC(C)n1c(=O)c(-c2ccc(NS(=O)(=O)Cc3ccc(F)cc3)c(F)c2)nc2cnc(N[C@H]3CC[C@H](N(C)C)[C@@H](F)C3)nc21 (stereo in doubt) [Compound 181B, N-(4-(2-((4-(Dimethylamino)-3-fluorocyclohexyl)amino)-8-isopropyl-7-oxo-7,8-dihydropteridin-6-yl)-2-fluorophenyl)-1-(4-fluorophenyl)methanesulfonamide]
490	CC(C)n1c(=O)c(-c2cc(F)c(NS(=O)(=O)CCC(F)(F)F)cc2F)nc2cnc(N[C@H]3CC[C@H](N(C)C)CC3)nc21 [Compound 189, N-(4-(2-(((1r,4r)-4-(dimethylamino)cyclohexyl)amino)-8-isopropyl-7-oxo-7,8-dihydropteridin-6-yl)-2,5-difluorophenyl)-3,3,3-trifluoropropane-1-sulfonamide]
200	CC(C)n1c(=O)c(-c2ccc(NS(=O)(=O)CCC3(C)CC3)c(F)c2)cc2cnc(N[C@H]3CC[C@H](N(C)C)CC3)nc21 [Example 230, N-(4-(2-(((1r,4r)-4-(dimethylamino)cyclo-hexyl)amino)-8-isopropyl-7-oxo-7,8-dihydropyrido[2,3-d]-pyrimidin-6-yl)-2-fluorophenyl)-2-(1-methylcyclopropyl)-ethane-1-sulfonamide]
210	CC(C)n1c(=O)c(-c2ccc(NS(=O)(=O)CCC(F)(F)F)c(F)c2)cc2cnc(N[C@H]3CC[C@H](N(C)C4CC4)CC3)nc21 [Compound 207, N-(4-(2-(((1,4-trans)-4-(Cyclopropyl(methyl)amino)cyclohexyl)amino)-8-isopropyl-7-oxo-7,8-dihydropyrido[2,3-d]pyrimidin-6-yl)-2-fluorophenyl)-3,3,3-trifluoropropane-1-sulfonamide]
220	CC(C)n1c(=O)c(-c2ccc(NS(=O)(=O)CCC(F)(F)F)c(F)c2)nc2cnc(N[C@H]3CC[C@H](N(C)C)[C@@H](F)C3)nc21 (stereo in doubt) [Compound 179A, N-(4-(2-((4-(Dimethylamino)-3-fluorocyclohexyl)amino)-8-isopropyl-7-oxo-7,8-dihydropteridin-6-yl)-2-fluorophenyl)-3,3,3-trifluoropropane-1-sulfonamide]
180	CC(C)n1c(=O)c(-c2ccc(NS(=O)(=O)CCC(F)(F)F)c(F)c2)cc2cnc(NC3CCC(N(C)C)C(F)C3)nc21 (single isomer, unassigned) [Compound 110A, N-(4-(2-((4-(Dimethylamino)-3-fluorocyclohexyl)amino)-8-isopropyl-7-oxo-7,8-dihydropyrido[2,3-d]pyrimidin-6-yl)-2-fluorophenyl)-3,3,3-trifluoropropane-1-sulfonamide]
190	CC(C)n1c(=O)c(-c2ccc(NS(=O)(=O)CC3CC(F)(F)C3)c(F)c2)cc2cnc(N[C@H]3CC[C@H](N(C)C)CC3)nc21 [Compound 151, 1-(3,3-Difluorocyclobutyl)-N-(4-(2-(((1r,4r)-4-(dimethylamino)cyclohexyl)amino)-8-isopropyl-7-oxo-7,8-dihydropyrido[2,3-d]pyrimidin-6-yl)-2-fluorophenyl)methanesulfonamide]
260	CC(C)n1c(=O)c(-c2ccc(NS(=O)(=O)c3ccccc3Cl)nc2)nc2cnc(N[C@H]3CC[C@H](N(C)C)CC3)nc21 [Compound 178, 2-Chloro-N-(5-(2-(((1r,4r)-4-(dimethylamino)cyclohexyl)amino)-8-isopropyl-7-oxo-7,8-dihydropteridin-6-yl)pyridin-2-yl)benzenesulfonamide]
